Broadly, the melting point is the temperature, or range, at which the solid turns liquid.

Series [1] addresses T1, purified recombinant Cdc25-C enzyme (MBP-Cdc25C protein) (Homo sapiens, UniProt P30307).
T1 construct: made in house
T1 sequence (P30307 1-473): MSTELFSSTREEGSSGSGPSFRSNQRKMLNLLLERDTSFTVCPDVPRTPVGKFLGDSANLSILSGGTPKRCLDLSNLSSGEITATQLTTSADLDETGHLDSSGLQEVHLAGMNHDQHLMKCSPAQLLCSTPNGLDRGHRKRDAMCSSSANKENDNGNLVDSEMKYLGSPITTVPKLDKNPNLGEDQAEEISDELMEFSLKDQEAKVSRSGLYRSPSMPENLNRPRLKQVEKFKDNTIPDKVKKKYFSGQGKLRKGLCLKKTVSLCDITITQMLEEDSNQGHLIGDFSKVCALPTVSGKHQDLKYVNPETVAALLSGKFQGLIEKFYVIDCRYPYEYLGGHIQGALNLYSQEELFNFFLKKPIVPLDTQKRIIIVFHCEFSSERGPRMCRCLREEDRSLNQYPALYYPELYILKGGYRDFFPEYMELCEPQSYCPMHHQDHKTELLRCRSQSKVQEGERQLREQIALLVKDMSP
Description: Phosphatase activity of the purified recombinant Cdc25C enzyme (OMFP dephosphorylation, fluorescence). The format is biochemical. The conditions noted are these: OMFP 500 μM, 4 hours at 30° C. The method, then:
The phosphatase activity of the MBP-Cdc25C protein is evaluated through its dephosphorylation of 3-O-methylfluorescein-phosphate (OMFP) to form 3-O-methylfluorescein (OMF), determining the fluorescence of the reaction product at 475 nm. This assay can be used to identify inhibitors of the recombinant Cdc25 enzyme. The preparation of the MBP-Cdc25C fusion protein is described in patent application PCT WO 01/44467.
The reaction is performed in 384-well plates in a final volume of 50 μl. The MBP-Cdc25C protein (prepared as described hereinabove) is stored in the following elution buffer: 20 mM Tris-HCl pH 7.4; 250 mM NaCl; 1 mM EDTA; 1 mM dithiothreitol (DTT); 10 mM maltose. It is diluted to a concentration of 60 μM in the following reaction buffer: 50 mM Tris-HCl pH 8.2; 50 mM NaCl; 1 mM DTT; 20% glycerol. The background noise is determined using with the buffer without addition of the enzyme. The products are tested at decreasing concentrations from 40 μM. The reaction is initiated by the addition of a solution OMFP to a final concentration of 500 μM (prepared immediately before use from a 12.5 mM stock solution in 100% DMSO (Sigma #M2629)). After 4 hours at 30° C. in a disposable 384-well plate, the fluorescence measured at OD 475 nm is read on a Victor^2 plate reader (EGG-Wallac). The concentration that produces 50% inhibition of the enzyme reaction is calculated from three independent experiments. Only the values that fall within the linear part of the sigmoid curve are used for the linear regression analysis.

In series [2] the test system is Mia-PaCa2 (human pancreas cancer cells). Description: Anti-proliferative activity on Mia-Paca2 cell line (WST1 colorimetric test). The conditions noted are these: MIA PaCa-2, 96 h, 96 hours treatment, read-out: IC50 on proliferation of the Mia-Paca2 cell line. The format is cell-based. The method, then: (§1) By way of an example, the effect of treating two human cell lines Mia-Paca2 and DU145 with the compounds of the examples described hereinbefore will be studied. The cell lines DU145 (human prostate cancer cells) and Mia-PaCa2 (human pancreas cancer cells) were obtained from the American Tissue Culture Collection (Rockville, Md., USA). A 96-well plate was inoculated on day 0 with cells placed in 80 μl of Dulbecco's modified Eagle's medium (Gibco-Brl, Cergy-Pontoise, France) with 10% heat-inactivated foetal calf serum (Gibco-Brl, Cergy-Pontoise, France), 50000 units/1 of penicillin and 50 mg/l of streptomycin (Gibco-Brl, Cergy-Pontoise, France), and 2 mM of glutamine (Gibco-Brl, Cergy-Pontoise, France). The cells were treated on day 1 with increasing concentrations of each test compound up to 10 μM for 96 hours. At the end of this period, cell proliferation is quantified by means of a colorimetric test based on cleavage of the tetrazolium salt WST1 by the mitochondrial dehydrogenases in the viable cells, resulting in formation of formazan (Boehringer Mannheim, Meylan, France). These tests are performed in duplicate with 8 determinations per concentration tested. For each compound to be tested, the values within the linear part of the sigmoid curve were subjected to linear regression analysis and used to estimate the IC50 inhibitory concentration. The products are solubilised in dimethylsulfoxide (DMSO) at a concentration of 10^−2 M and used in culture with a final DMSO concentration of 0.1%.
A general note: Tetrazolium dyes change colour on reduction, which living cells bring about.

Series [3] relates to DU145 (human prostate cancer cells). Description: Anti-proliferative activity on DU-145 cell line (WST1 colorimetric test). It counts as cell-based. The conditions noted are these: DU-145, 96 h, 96 hours treatment, read-out: IC50 on the proliferation of the DU-145 cell line. The method, then: as §1

As to `CN(C)CCN(C)c1cc(NCCN(C)CCNC(=S)Nc2ccc(Cl)cc2)nc(N(C)CCN(C)C)n1` [Example 64, N-{2-[[2-({2,6-bis[[2-(dimethylamino)ethyl](methyl)amino]pyrimidin-4-yl}amino)ethyl](methyl)amino]ethyl}-N′-(4-chlorophenyl)thiourea], the IC50 in series [1] and in series [2] was not above 5 µM in each case.
Take `CN(CCNC(=O)c1cccc2c1-c1ccccc1C2=O)CCNc1cc(N2CCCC2)nc(N2CCCC2)n1` [Example 85, N-{2-[{2-[(2,6-dipyrrolidin-1-ylpyrimidin-4-yl)amino]ethyl}(methyl)amino]ethyl}-9-oxo-9H-fluorene-4-carboxamide]: the melting point fell in the range of 139 to 140 °C. For the same compound, in series [1], the IC50 is not above 5 µM. Further, the IC50 in series [2] is not above 5 µM.
Take `CN(CCNC(=S)Nc1cccc2ccccc12)CCNc1cc(N2CCCC2)nc(N2CCCC2)n1` [Example 37, N-{2-[{2-[(2,6-dipyrrolidin-1-ylpyrimidin-4-yl)amino]ethyl}(methyl)amino]ethyl}-N′-1-naphthylthiourea]: the melting point is 87 to 89 °C. Besides, in series [3], the IC50 was not above 5 µM. Besides, the IC50 in series [1] is not above 5 µM.
Compound `CN(CCNC(=S)Nc1cccnc1)CCNc1cc(N2CCCC2)nc(N2CCCC2)n1` [Example 26, N-{2-[{2-[(2,6-dipyrrolidin-1-ylpyrimidin-4-yl)amino]ethyl}(methyl)amino]ethyl}-N′-pyridin-3-ylthiourea] displayed a melting point of 107 to 109 °C. Moreover, the IC50 in series [1] was not above 1 µM. For the same compound, the IC50 in series [2] is not above 5 µM.
In turn, `CN(CCNC(=O)Nc1cccs1)CCNc1cc(N2CCCC2)nc(N2CCCC2)n1` [Example 10, N-{2-[{2-[(2,6-dipyrrolidin-1-ylpyrimidin-4-yl)amino]ethyl}(methyl)amino]ethyl}-N′-2-thienylurea] displayed a melting point of 133 to 135 °C. Further, the IC50 in series [3] is not above 5 µM. Besides, the IC50 in series [1] is not above 1 µM.
The matching figures for `CN(CCNC(=S)Nc1ccc(OC(F)(F)F)cc1)CCNc1cc(N2CCCC2)nc(N2CCCC2)n1` [Example 23, N-{2-[{2-[(2,6-dipyrrolidin-1-ylpyrimidin-4-yl)amino]ethyl}(methyl)amino]ethyl}-N′-[4-(trifluoromethoxy)phenyl]thiourea]: 118 to 120 °C, not above 5 µM and not above 5 µM.
`CC(Oc1ccccc1)C(=O)NCCN(C)CCNc1cc(N2CCCC2)nc(N2CCCC2)n1` (stereo not drawn) [Example 84, N-{2-[{2-[(2,6-dipyrrolidin-1-ylpyrimidin-4-yl)amino]ethyl}(methyl)amino]ethyl}-2-phenoxypropanamide] registered a melting point of 110 to 112 °C. The IC50 in series [1] is not above 5 µM. In addition, in series [2], the IC50 is not above 5 µM.
As for `CN(CCNC(=S)Nc1ccc(Cl)cc1)CCNc1cc(N2CCCCC2)nc(N2CCCCC2)n1` [Example 69, N-(4-chlorophenyl)-N′-{2-[{2-[(2,6-dipiperidin-1-ylpyrimidin-4-yl)amino]ethyl}(methyl)amino]ethyl}thiourea], the melting point was in the range of 76 to 78 °C. Moreover, in series [3], the IC50 is not above 5 µM. The IC50 in series [1] was not above 1 µM.
Compound `CN(CCNC(=S)Nc1ccc(C(F)(F)F)cc1)CCNc1cc(N2CCCC2)nc(N2CCCC2)n1` [Example 25, N-{2-[{2-[(2,6-dipyrrolidin-1-ylpyrimidin-4-yl)amino]ethyl}(methyl)amino]ethyl}-N′-[4-(trifluoromethyl)phenyl]thiourea] had a melting point of 87 to 89 °C. The IC50 in series [3] is not above 5 µM.
The compound `CSc1ccc(NC(=S)NCCN(C)CCNc2cc(N3CCCC3)nc(N3CCCC3)n2)cc1` [Example 51, N-{2-[{2-[(2,6-dipyrrolidin-1-ylpyrimidin-4-yl)amino]ethyl}(methyl)amino]ethyl}-N′-[4-(methylthio)phenyl]thiourea] registered a melting point of 67 to 69 °C. In addition, the IC50 in series [3] is not above 5 µM. In addition, the IC50 in series [1] is not above 1 µM.
In turn, `CN(CCNC(=S)Nc1ccc(-c2cnco2)cc1)CCNc1cc(N2CCCC2)nc(N2CCCC2)n1` [Example 33, N-{2-[{2-[(2,6-dipyrrolidin-1-ylpyrimidin-4-yl)amino]ethyl}(methyl)amino]ethyl}-N′-[4-(1,3-oxazol-5-yl)phenyl]thiourea] yielded a melting point of 104 to 106 °C. In series [3], the IC50 was not above 5 µM. Besides, the IC50 in series [1] was not above 5 µM.
`CN(CCNC(=S)Nc1ccc(Oc2ccccc2)cc1)CCNc1cc(N2CCCC2)nc(N2CCCC2)n1` [Example 36, N-{2-[{2-[(2,6-dipyrrolidin-1-ylpyrimidin-4-yl)amino]ethyl}(methyl)amino]ethyl}-N′-(4-phenoxyphenyl)thiourea] registered a melting point of 79 to 81 °C. In addition, the IC50 in series [3] is not above 5 µM. Further, the IC50 in series [1] was not above 5 µM.
Take `CN(CCNC(=S)Nc1ccc(C(C)(C)C)cc1)CCNc1cc(N2CCCC2)nc(N2CCCC2)n1` [Example 44, N-(4-tert-butylphenyl)-N′-{2-[{2-[(2,6-dipyrrolidin-1-ylpyrimidin-4-yl)amino]ethyl}(methyl)amino]ethyl}thiourea]: the melting point lay in the range of 192 to 194 °C. For the same compound, the IC50 in series [3] was not above 5 µM. For the same compound, the IC50 in series [1] was not above 1 µM.
`CN(CCNC(=S)Nc1ccc(Oc2ccccc2)nc1)CCNc1cc(N2CCCC2)nc(N2CCCC2)n1` [Example 30, N-{2-[{2-[(2,6-dipyrrolidin-1-ylpyrimidin-4-yl)amino]ethyl}(methyl)amino]ethyl}-N′-(6-phenoxypyridin-3-yl)thiourea] displayed a melting point of 104 to 106 °C. For the same compound, in series [3], the IC50 is not above 5 µM. Also, in series [1], the IC50 is not above 5 µM.
`COc1ccc(NC(=S)NCCN(C)CCNc2cc(N3CCCC3)nc(N3CCCC3)n2)cc1` [Example 35, N-{2-[{2-[(2,6-dipyrrolidin-1-ylpyrimidin-4-yl)amino]ethyl}(methyl)amino]ethyl}-N′-(4-methoxyphenyl)thiourea]: the melting point was in the range of 127 to 129 °C. The IC50 in series [3] is not above 5 µM. Also, in series [1], the IC50 is not above 5 µM.
Consider `CCNc1cc(NCCN(C)CCNC(=S)Nc2ccc(Cl)cc2)nc(NCC)n1` [Example 79, N-{2-[(2-{[2,6-bis(ethylamino)pyrimidin-4-yl]amino}ethyl)(methyl)amino]ethyl}-N′-(4-chlorophenyl)thiourea], for which the melting point lay within 142 to 144 °C. Moreover, the IC50 in series [2] is not above 5 µM.
The compound `CN(CCNC(=S)Nc1ccc(F)cc1)CCNc1cc(N2CCCC2)nc(N2CCCC2)n1` [Example 24, N-{2-[{2-[(2,6-dipyrrolidin-1-ylpyrimidin-4-yl)amino]ethyl}(methyl)amino]ethyl}-N′-(4-fluorophenyl)thiourea] returned a melting point of 115 to 117 °C. Further, the IC50 in series [3] is not above 5 µM. Besides, the IC50 in series [1] was not above 5 µM.
